# What was measured:
# Acetylcholinesterase [1] = biological target: T1, Acetylcholinesterase (Homo sapiens, UniProt P22303); assay: Inhibition of recombinant human AchE by Ellman's reagent based spectrophotometric analysis
# Cholinesterase [2] = biological target: T2, Cholinesterase (Homo sapiens, UniProt P06276); assay: Inhibition of human BchE by Ellman's reagent based spectrophotometric analysis
# [3] = system: Mycobacterium tuberculosis; assay: Antitubercular activity against Mycobacterium tuberculosis H37Rv; assay type: functional
# [4] = system: Mycobacterium tuberculosis; assay: Antitubercular activity against Mycobacterium tuberculosis H37Rv assessed as inhibition of bacterial growth at 250 microg/ml relative to control; assay type: functional
# [5] = Selectivity index, ratio of IC50 for cytotoxicity against African green monkey Vero cells to IC50 for antiplasmodial activity against D-sorbitol synchronized chloroquine-resistant Plasmodium falciparum W2; assay type: toxicity, cell-based; settings: read-out: Ratio IC50
# [6] = Cytotoxicity against human A375P cells assessed as cell viability incubated for 72 hrs by alamar blue reagent based assay; assay type: functional
# Jurkat E6.1 = assay: Cytotoxicity against human Jurkat E6.1 cells assessed as reduction in cell viability incubated for 24 hrs by MTT assay; assay type: functional, cell-based; settings: Jurkat E6.1, 24 h
# HL-60 = assay: Cytotoxicity against human HL-60 cells assessed as reduction in cell viability incubated for 24 hrs by MTT assay; assay type: functional, cell-based; settings: HL-60, 24 h
# Cholinesterase [7] = biological target: T2, Cholinesterase; assay: Inhibition of human BChE
# Acetylcholinesterase [8] = biological target: T1, Acetylcholinesterase; assay: Inhibition of human erythrocyte AChE using acetylthiocholine as substrate preincubated for 5 mins followed by substrate addition by Ellman's reagent based spectrophotometric analysis
# [9] = Cytotoxicity against human Huh-7 cells assessed as reduction in cell viability incubated for 2 days by MTT assay; assay type: toxicity, cell-based; settings: time 2 day
# [10] = Inhibition of ConA-induced IL-6 secretion in female BALB/c mouse splenocyte incubated for 48 hrs by ELISA; assay type: functional, cell-based
# [11] = Inhibition of ConA-induced IL-1beta secretion in female BALB/c mouse splenocyte incubated for 48 hrs by ELISA; assay type: functional, cell-based
# [12] = Inhibition of ConA-induced TNF-alpha secretion in female BALB/c mouse splenocyte incubated for 48 hrs by ELISA; assay type: functional, cell-based
# Acetylcholinesterase [13] = biological target: T3, Acetylcholinesterase (Electrophorus electricus, UniProt O42275); assay: Inhibition of electric eel AChE using […] as substrate preincubated for 10 mins followed by substrate addition and measured after 5 mins by Ellman's reagent based spectrophotometric analysis
# Cholinesterase [14] = biological target: T4, Cholinesterase (Equus caballus, UniProt P81908); assay: Inhibition of equine serum BChE using […] as substrate preincubated for 10 mins followed by substrate addition and measured after 5 mins by Ellman's reagent based spectrophotometric analysis
# HepG2 = assay: Antiproliferative activity against human HepG2 cells assessed as reduction in cell proliferation incubated for 24 hrs by MTT assay; assay type: functional, cell-based; settings: HepG2, 24 h
# [15] = Cytotoxicity against MDCK cells assessed as cell growth inhibition incubated for 72 hrs by MTT assay; assay type: toxicity, cell-based, Canis lupus familiaris; settings: dog
# [16] = Antiproliferative activity against human Caco-2 cells assessed as cell growth inhibition incubated for 72 hrs by MTT assay; assay type: toxicity, cell-based
# Acetylcholinesterase [17] = biological target: T3, Acetylcholinesterase; assay: Inhibition of electric eel AChE using […] as substrate measured after 2 mins by Ellman's reagent based spectrophotometric analysis
# Cholinesterase [18] = biological target: T4, Cholinesterase; assay: Inhibition of equine serum BChE using […] as substrate measured after 2 mins by Ellman's reagent based spectrophotometric analysis
# A549 = assay: Antiproliferative activity against human A549 cells; assay type: functional, cell-based
# MCF7 = assay: Antiproliferative activity against human MCF7 cells; assay type: functional, cell-based
# Acetylcholinesterase [19] = biological target: T1, Acetylcholinesterase; assay: Inhibition of human AChE
# [20] = system: Mycobacterium tuberculosis; assay: Antitubercular activity against Mycobacterium tuberculosis H37Rv by microplate alamar blue assay; assay type: functional
# SMMC-7721 = assay: Antiproliferative activity against human SMMC-7721 cells assessed as reduction in cell proliferation incubated for 24 hrs by MTT assay; assay type: functional, cell-based; settings: SMMC-7721, 24 h
# T2 sequence (P06276 whole entry): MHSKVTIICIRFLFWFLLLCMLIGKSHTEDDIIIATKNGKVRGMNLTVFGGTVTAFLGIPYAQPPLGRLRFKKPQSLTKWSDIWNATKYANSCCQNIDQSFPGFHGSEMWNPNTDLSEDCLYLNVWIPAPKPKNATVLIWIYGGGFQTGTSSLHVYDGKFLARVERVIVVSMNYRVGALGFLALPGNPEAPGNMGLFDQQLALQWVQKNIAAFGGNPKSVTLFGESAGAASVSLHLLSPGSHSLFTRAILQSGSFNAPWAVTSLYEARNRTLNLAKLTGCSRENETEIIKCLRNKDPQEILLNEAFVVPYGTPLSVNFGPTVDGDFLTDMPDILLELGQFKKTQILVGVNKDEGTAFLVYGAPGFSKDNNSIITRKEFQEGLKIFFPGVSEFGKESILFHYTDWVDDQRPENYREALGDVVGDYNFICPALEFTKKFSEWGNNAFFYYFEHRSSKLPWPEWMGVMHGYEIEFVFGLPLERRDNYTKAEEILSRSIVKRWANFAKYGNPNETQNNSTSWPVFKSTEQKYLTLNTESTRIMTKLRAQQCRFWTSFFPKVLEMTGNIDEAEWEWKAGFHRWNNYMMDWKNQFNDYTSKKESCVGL
# T3 sequence (O42275 whole entry): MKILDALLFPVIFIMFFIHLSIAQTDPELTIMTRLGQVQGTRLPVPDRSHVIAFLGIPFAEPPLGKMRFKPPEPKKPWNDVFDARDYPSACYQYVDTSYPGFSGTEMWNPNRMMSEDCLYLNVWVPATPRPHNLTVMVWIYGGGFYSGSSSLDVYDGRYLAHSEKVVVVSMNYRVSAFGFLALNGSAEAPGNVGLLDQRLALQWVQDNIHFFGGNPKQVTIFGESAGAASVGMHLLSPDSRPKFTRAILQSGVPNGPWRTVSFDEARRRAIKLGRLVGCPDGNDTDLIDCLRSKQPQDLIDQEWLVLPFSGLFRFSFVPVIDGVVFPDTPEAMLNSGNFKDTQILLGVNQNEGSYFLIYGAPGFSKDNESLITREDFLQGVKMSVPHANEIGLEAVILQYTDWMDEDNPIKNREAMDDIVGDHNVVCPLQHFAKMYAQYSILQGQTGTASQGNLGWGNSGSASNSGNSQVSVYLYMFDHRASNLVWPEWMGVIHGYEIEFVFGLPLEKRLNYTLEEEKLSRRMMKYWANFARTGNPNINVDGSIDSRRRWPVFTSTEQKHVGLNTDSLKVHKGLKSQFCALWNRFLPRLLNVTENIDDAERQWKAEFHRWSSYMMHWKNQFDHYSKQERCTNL
# T1 sequence (P22303 whole entry): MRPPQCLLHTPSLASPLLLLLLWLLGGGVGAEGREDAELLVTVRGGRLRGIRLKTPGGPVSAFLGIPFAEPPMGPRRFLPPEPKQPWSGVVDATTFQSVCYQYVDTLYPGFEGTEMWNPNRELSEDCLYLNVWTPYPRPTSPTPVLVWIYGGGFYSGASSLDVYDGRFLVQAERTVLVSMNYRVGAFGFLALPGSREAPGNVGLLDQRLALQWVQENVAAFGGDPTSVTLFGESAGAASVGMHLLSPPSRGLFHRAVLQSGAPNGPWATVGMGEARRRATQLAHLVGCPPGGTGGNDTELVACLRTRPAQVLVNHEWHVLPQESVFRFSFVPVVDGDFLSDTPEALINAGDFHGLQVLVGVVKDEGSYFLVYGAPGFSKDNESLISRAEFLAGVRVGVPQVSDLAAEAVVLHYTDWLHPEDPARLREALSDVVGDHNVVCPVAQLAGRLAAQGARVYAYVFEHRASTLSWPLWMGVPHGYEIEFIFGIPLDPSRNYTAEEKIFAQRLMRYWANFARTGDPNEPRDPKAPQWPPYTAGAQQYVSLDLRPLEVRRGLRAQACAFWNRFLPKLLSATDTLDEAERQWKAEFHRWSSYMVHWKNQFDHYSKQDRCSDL
# T4 sequence (P81908 whole entry): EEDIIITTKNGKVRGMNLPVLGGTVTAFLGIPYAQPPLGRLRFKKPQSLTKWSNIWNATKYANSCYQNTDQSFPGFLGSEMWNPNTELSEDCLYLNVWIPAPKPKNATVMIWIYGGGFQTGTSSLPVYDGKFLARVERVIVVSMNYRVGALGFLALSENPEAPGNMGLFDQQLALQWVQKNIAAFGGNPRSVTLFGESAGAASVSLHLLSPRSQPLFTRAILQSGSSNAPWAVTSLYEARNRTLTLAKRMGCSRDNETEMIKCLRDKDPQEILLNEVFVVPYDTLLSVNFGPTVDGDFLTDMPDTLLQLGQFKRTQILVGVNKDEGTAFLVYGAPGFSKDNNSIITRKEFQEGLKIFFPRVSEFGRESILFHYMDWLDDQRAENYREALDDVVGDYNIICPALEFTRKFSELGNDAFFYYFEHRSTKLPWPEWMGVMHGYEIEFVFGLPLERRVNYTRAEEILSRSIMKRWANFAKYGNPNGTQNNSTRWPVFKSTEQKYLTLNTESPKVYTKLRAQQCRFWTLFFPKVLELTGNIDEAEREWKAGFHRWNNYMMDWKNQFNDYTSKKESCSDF
smiles,measurement,setting,value
Clc1ccc2c(NCCCCCCCCNC34CC5CC(CC(C5)C3)C4)ccnc2c1,Ki,Acetylcholinesterase [1],75 nM
same,Ki,Cholinesterase [2],91 nM
Cc1cc(C(=O)NNc2ccnc3cc(Cl)ccc23)c2ccccc2n1,MIC,[3],42 µM
same,inhibition at 250 µg/mL,[4],98%
CCN(CC)c1ccc2c(c1)C(=O)N(CCC(=O)NCCNc1ccnc3cc(Cl)ccc13)C2=O,selectivity ratio,[5],> 2000
Clc1ccc2c(NCCCN(CCCCN(CCCNc3ccnc4cc(Cl)ccc34)Cc3ccccc3)Cc3ccccc3)ccnc2c1,IC50,[6],269 nM
COc1ccc(/C=C/C(=O)c2ccc(Nc3ccnc4cc(Cl)ccc34)cc2)c(OC)c1,IC50,Jurkat E6.1,10400 nM
same,IC50,HL-60,13500 nM
CC(C)(C)c1ccc(CNCCNc2c3c(nc4ccccc24)CCCCC3)c(C(C)(C)C)c1O,IC50,Cholinesterase [7],84 nM
same,IC50,Acetylcholinesterase [8],1900 nM
Cc1ccc(S(=O)(=O)NCCCCCNc2c3c(nc4ccccc24)CCCC3)cc1,IC50,Cholinesterase [7],68 nM
same,IC50,Acetylcholinesterase [8],62 nM
CCN(CCCC(C)Nc1ccnc2cc(Cl)ccc12)CCNC(=O)C(F)(F)C1CCN(C(=O)C2OC(OC)C3OC(C)(C)OC23)CC1 (stereo not drawn),CC50 at 48 h,[9],16900 nM
same,IC50,[10],1870 nM
same,IC50,[11],1190 nM
same,IC50,[12],4410 nM
Clc1ccc(C2CC(c3ccc(Nc4ccnc5cc(Cl)ccc45)cc3)=NN2)cc1 (stereo not drawn),IC50,Jurkat E6.1,6310 nM
same,IC50,HL-60,6170 nM
Oc1ccccc1/C=N/CCCCCCNc1ccnc2cc(Cl)ccc12,IC50,Acetylcholinesterase [13],730 nM
same,IC50,Cholinesterase [14],58400 nM
Oc1ccccc1CNCCNc1ccnc2cc(Cl)ccc12,IC50,Acetylcholinesterase [13],1970 nM
same,IC50,Cholinesterase [14],30300 nM
O=C(NNc1ccnc2cc(Cl)ccc12)c1cc(-c2ccccc2)nc2ccccc12,MIC,[3],38 µM
same,inhibition at 250 µg/mL,[4],99%
O=C(N/N=C/c1nc2ccccc2[nH]1)c1ccc(Nc2ccnc3ccccc23)cc1,IC50,HepG2,> 80000 nM
Clc1ccc2c(Nc3cccc(-c4nc5ccccc5[nH]4)c3)ccnc2c1,IC50 at 72 h,[15],20400 nM
same,GI50 at 72 h,[16],1000 nM
CN(CCCCN(C)CCCNc1ccnc2cc(Cl)ccc12)CCCNc1ccnc2cc(Cl)ccc12,IC50,[6],269 nM
COc1cc(/C=C/C(=O)NCCCNc2cc(C)nc3ccccc23)ccc1OCc1ccccc1,IC50,Acetylcholinesterase [17],2470 nM
same,IC50,Cholinesterase [18],100 nM
CCN(CCCC(C)Nc1ccnc2cc(Cl)ccc12)CCNC(=O)C(F)(F)C1CCN(CCOCCOC)CC1 (stereo not drawn),CC50 at 48 h,[9],5750 nM
same,IC50,[10],2520 nM
same,IC50,[11],1810 nM
same,IC50,[12],24400 nM
CC(=O)n1c2ccccc2c(=O)c2c(-n3ccnc3)nc3ccc(Br)cc3c21,IC50,A549,440 nM
same,IC50,MCF7,620 nM
S=C(NCCCCNc1c2c(nc3ccccc13)CCCC2)NCCc1c[nH]c2ccccc12,IC50,Acetylcholinesterase [19],25 nM
same,IC50,Cholinesterase [7],76 nM
COn1cc(CCNC(=S)NCCCCCNc2c3c(nc4ccccc24)CCCC3)c2ccccc21,IC50,Acetylcholinesterase [19],70 nM
same,IC50,Cholinesterase [7],39 nM
NC(=O)N/N=C(/C=C/c1ccc(Br)cc1)c1ccc(Nc2ccnc3cc(Cl)ccc23)cc1,MIC,[20],1.56 µM
COc1ccc(/C=N/NC(=O)c2ccc(Nc3ccnc4ccccc34)cc2)cc1OC,IC50,HepG2,12600 nM
same,IC50,SMMC-7721,9600 nM
